Data from PubChem BioAssay (NCI).
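Cultured in 96-well plates, cells were exposed to test compound for 48 hours across five concentrations. At the GI50, growth is halved. TGI denotes the concentration required for complete inhibition of growth.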

What was measured:
Assay in all cases: inhibition of tumour cell growth, NCI panel, 48 h
[1] = tested on: A498 renal
[2] = tested on: K-562 leukemia
[3] = tested on: RPMI-8226 leukemia
[4] = tested on: HCT-15 colon
[5] = tested on: SW-620 colon
[6] = tested on: SF-539 CNS
[7] = tested on: SR leukemia
[8] = tested on: PC-3 prostate
[9] = tested on: RXF 393 renal
[10] = tested on: MOLT-4 leukemia
[11] = tested on: A549 NSCLC
[12] = tested on: DU-145 prostate
[13] = tested on: TK-10 renal
[14] = tested on: CCRF-CEM leukemia
[15] = tested on: NCI-H226 lung
[16] = tested on: ACHN renal
[17] = tested on: OVCAR-3 ovarian
[18] = tested on: SF-268 CNS
[19] = tested on: OVCAR-8 ovarian
[20] = tested on: HT29 colon
[21] = tested on: KM12 colon
[22] = tested on: OVCAR-4 ovarian
[23] = tested on: SNB-19 CNS
[24] = tested on: COLO 205 colon
[25] = tested on: M14 melanoma
[26] = tested on: T-47D breast
[27] = tested on: HS 578T breast
[28] = tested on: HOP-92 NSCLC
[29] = tested on: 786-0 renal
[30] = tested on: CAKI-1 renal
[31] = tested on: LOX IMVI melanoma
[32] = tested on: BT-549 breast
[33] = tested on: MALME-3M melanoma
[34] = tested on: MDA-MB-231 breast
[35] = tested on: NCI/ADR-RES ovarian
[36] = tested on: SK-MEL-5 melanoma
[37] = tested on: NCI-H23 lung
[38] = tested on: UACC-257 melanoma
[39] = tested on: OVCAR-5 ovarian
[40] = tested on: MCF7 breast
[41] = tested on: UO-31 renal
[42] = tested on: IGROV1 ovarian
[43] = tested on: SF-295 CNS
[44] = tested on: SK-MEL-2 melanoma
[45] = tested on: SK-MEL-28 melanoma
[46] = tested on: SNB-75 CNS
[47] = tested on: HCT-116 colon
[48] = tested on: EKVX NSCLC
[49] = tested on: NCI-H460 lung
[50] = tested on: MDA-MB-435
[51] = tested on: UACC-62 melanoma
[52] = tested on: U251 CNS
[53] = tested on: NCI-H522 lung
[54] = tested on: SN12C renal
[55] = tested on: HOP-62 NSCLC

With `COc1ccc(-c2cc(-c3ccc(O)cc3)nc3n[nH]c(N)c23)cc1` as the compound, how does the GI50 [1] read?
The GI50 was 16.8 µM.

And the TGI [1]?
The TGI was 36.6 µM.

What about the GI50 [2] of the same compound?
The GI50 was 35.3 µM.

What about the TGI [2] of the same compound?
The TGI was greater than 100 µM.

What about the GI50 [3] of the same compound?
Its GI50 is 21.1 µM.

What about the TGI [3] of the same compound?
The TGI was 66.8 µM.

What about the GI50 [4] of the same compound?
Its GI50 is 25.9 µM.

And the TGI [4]?
The TGI was 95 µM.

What about the GI50 [5] of the same compound?
Its GI50 is 15.6 µM.

And the TGI [5]?
The TGI was 38.1 µM.

And the GI50 [6]?
Its GI50 is 14.7 µM.

And the TGI [6]?
The TGI was 28.6 µM.

What about the GI50 [7] of the same compound?
Its GI50 is 24.1 µM.

And the TGI [7]?
Its TGI is greater than 100 µM.

What about the GI50 [8] of the same compound?
The GI50 was 29.1 µM.

What about the TGI [8] of the same compound?
Its TGI is greater than 100 µM.

And the GI50 [9]?
Its GI50 is 29 µM.

What about the TGI [9] of the same compound?
Its TGI is 92.5 µM.

And the GI50 [10]?
Its GI50 is 26.9 µM.

What about the TGI [10] of the same compound?
Its TGI is greater than 100 µM.

What about the GI50 [11] of the same compound?
The GI50 was 26.8 µM.

And the TGI [11]?
The TGI was greater than 100 µM.

What about the GI50 [12] of the same compound?
Its GI50 is 15.3 µM.

And the TGI [12]?
The TGI was 36.5 µM.

And the GI50 [13]?
The GI50 was 29.8 µM.

What about the TGI [13] of the same compound?
The TGI was greater than 100 µM.

And the GI50 [14]?
The GI50 was 21.6 µM.

What about the TGI [14] of the same compound?
Its TGI is 81.8 µM.

What about the GI50 [15] of the same compound?
Its GI50 is 17.9 µM.

And the TGI [15]?
Its TGI is 49.5 µM.

And the GI50 [16]?
The GI50 was 18.2 µM.

And the TGI [16]?
Its TGI is 87.9 µM.

And the GI50 [17]?
Its GI50 is 13.5 µM.

What about the TGI [17] of the same compound?
The TGI was 31.7 µM.

And the GI50 [18]?
Its GI50 is 19.6 µM.

What about the TGI [18] of the same compound?
The TGI was 56.2 µM.

And the GI50 [19]?
The GI50 was 26.1 µM.

And the TGI [19]?
The TGI was 91.6 µM.

What about the GI50 [20] of the same compound?
The GI50 was 22.6 µM.

And the TGI [20]?
The TGI was greater than 100 µM.

What about the GI50 [21] of the same compound?
The GI50 was 16.3 µM.

What about the TGI [21] of the same compound?
Its TGI is 40.7 µM.

And the GI50 [22]?
The GI50 was 43.3 µM.

And the TGI [22]?
Its TGI is greater than 100 µM.

What about the GI50 [23] of the same compound?
The GI50 was 33.3 µM.

What about the TGI [23] of the same compound?
Its TGI is greater than 100 µM.

And the GI50 [24]?
Its GI50 is 14.6 µM.

What about the TGI [24] of the same compound?
The TGI was 32.4 µM.

And the GI50 [25]?
The GI50 was 21.3 µM.

What about the TGI [25] of the same compound?
Its TGI is 43 µM.

And the GI50 [26]?
Its GI50 is 18 µM.

What about the TGI [26] of the same compound?
Its TGI is 83.5 µM.

And the GI50 [27]?
The GI50 was 19.6 µM.

What about the TGI [27] of the same compound?
The TGI was 43.3 µM.

And the GI50 [28]?
The GI50 was 11.9 µM.

And the TGI [28]?
The TGI was 28.7 µM.

And the GI50 [29]?
The GI50 was 26 µM.

And the TGI [29]?
The TGI was 74.3 µM.

What about the GI50 [30] of the same compound?
Its GI50 is 20.2 µM.

What about the TGI [30] of the same compound?
Its TGI is 78.3 µM.

And the GI50 [31]?
The GI50 was 17 µM.

What about the TGI [31] of the same compound?
Its TGI is 36.4 µM.

What about the GI50 [32] of the same compound?
The GI50 was 15.5 µM.

What about the TGI [32] of the same compound?
The TGI was 32.6 µM.

What about the GI50 [33] of the same compound?
The GI50 was 21 µM.

And the TGI [33]?
The TGI was 44 µM.

And the GI50 [34]?
The GI50 was 14.9 µM.

And the TGI [34]?
The TGI was 50.3 µM.

What about the GI50 [35] of the same compound?
Its GI50 is 23.1 µM.

And the TGI [35]?
Its TGI is 51.9 µM.

What about the GI50 [36] of the same compound?
The GI50 was 15.1 µM.

And the TGI [36]?
The TGI was 28.8 µM.

What about the GI50 [37] of the same compound?
Its GI50 is 26.5 µM.

And the TGI [37]?
Its TGI is 68.3 µM.

And the GI50 [38]?
The GI50 was 21.8 µM.

What about the TGI [38] of the same compound?
Its TGI is 56.9 µM.

And the GI50 [39]?
Its GI50 is 15.1 µM.

And the TGI [39]?
Its TGI is 48.2 µM.

What about the GI50 [40] of the same compound?
Its GI50 is 16.7 µM.

And the TGI [40]?
The TGI was 56.8 µM.

What about the GI50 [41] of the same compound?
The GI50 was 10.4 µM.

And the TGI [41]?
The TGI was 28.2 µM.

And the GI50 [42]?
Its GI50 is 17 µM.

What about the TGI [42] of the same compound?
The TGI was 52.2 µM.

What about the GI50 [43] of the same compound?
The GI50 was 18.5 µM.

And the TGI [43]?
The TGI was 51.9 µM.

And the GI50 [44]?
The GI50 was 16.4 µM.

What about the TGI [44] of the same compound?
The TGI was 35.1 µM.

And the GI50 [45]?
The GI50 was 33.6 µM.

What about the TGI [45] of the same compound?
The TGI was greater than 100 µM.

What about the GI50 [46] of the same compound?
The GI50 was 31.7 µM.

And the TGI [46]?
The TGI was greater than 100 µM.

And the GI50 [47]?
Its GI50 is 17.4 µM.

What about the TGI [47] of the same compound?
The TGI was 37.3 µM.

What about the GI50 [48] of the same compound?
Its GI50 is 15.3 µM.

And the TGI [48]?
The TGI was 52.3 µM.

What about the GI50 [49] of the same compound?
The GI50 was 21.6 µM.

And the TGI [49]?
Its TGI is 58.2 µM.

And the GI50 [50]?
The GI50 was 22 µM.

And the TGI [50]?
The TGI was 47.4 µM.

What about the GI50 [51] of the same compound?
Its GI50 is 17.2 µM.

And the TGI [51]?
The TGI was 34.5 µM.

And the GI50 [52]?
Its GI50 is 18.6 µM.

And the TGI [52]?
Its TGI is 46.7 µM.

What about the GI50 [53] of the same compound?
Its GI50 is 14.5 µM.

And the TGI [53]?
Its TGI is 33.6 µM.

And the GI50 [54]?
Its GI50 is 19.2 µM.

And the TGI [54]?
The TGI was 36.5 µM.

And the GI50 [55]?
Its GI50 is 21.9 µM.

What about the TGI [55] of the same compound?
Its TGI is 53.9 µM.
